This note sets out measurements from US8957062B2, “Substituted cyclopropyl compounds, compositions containing such compounds and methods of treatment” (Merck Sharp & Dohme Corp., priority 2011, dated 2015).

One series has as its target T1, human GPR119 (Homo sapiens, UniProt Q8TDV5).
T1 sequence (Q8TDV5 1-308 limits assumed): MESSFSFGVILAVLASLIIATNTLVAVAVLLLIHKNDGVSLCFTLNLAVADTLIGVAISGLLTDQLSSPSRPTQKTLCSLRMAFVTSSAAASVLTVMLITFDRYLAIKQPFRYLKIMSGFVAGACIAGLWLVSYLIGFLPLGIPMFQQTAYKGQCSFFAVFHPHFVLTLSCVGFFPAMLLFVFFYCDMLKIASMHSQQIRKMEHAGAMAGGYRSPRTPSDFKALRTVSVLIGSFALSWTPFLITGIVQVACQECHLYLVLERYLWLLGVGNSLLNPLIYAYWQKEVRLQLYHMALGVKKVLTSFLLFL
As to the kind of experiment: Measurement of GPR119 signaling (cAMP assay) in cells stably transfected with human GPR119. The format is cell-based. To be noted: stated in the example text; cAMP stimulation, human GPR119; read-out: GPR119 Human EC50. In general terms: Changes in cAMP serve as a functional read-out for many G protein-coupled receptors.
On to `COCc1noc(N2CCC([C@H]3C[C@H]3CCOc3ccc(S(C)(=O)=O)cn3)CC2)n1` [Example 208, 3-(methoxymethyl)-5-(4-((1R,2S)-2-(2-(5-(methylsulfonyl)pyridin-2-yloxy)ethyl)cyclopropyl)piperidin-1-yl)-1,2,4-oxadiazole], for which the EC50 (in general, the midpoint of the concentration-response curve) was determined as 7 nM.

Take `Cc1cc(-n2cnnn2)cnc1OCC[C@@H]1C[C@@H]1C1CCN(c2nc(C(C)C)no2)CC1` [Example 225, 2-(2-{(1S,2R)-2-[1-(3-isopropyl-1,2,4-oxidiazol-5-yl)piperidin-4-yl]cyclopropyl}ethoxy]-3-methyl-5-(1H-tetrazol-1-yl)pyridine]: the EC50 is 0.1 nM.

Take `CCc1nc(N2CCC([C@H]3C[C@H]3CCOc3ccc(S(C)(=O)=O)cn3)CC2)no1` [Example 233, 2-(2-{(1S,2R)-2-[1-(5-ethyl-1,2,4-oxidiazol-5-yl)piperidin-4-yl]cyclopropyl}ethoxy)-5-(methylsulfonyl)pyridine]: the EC50 came to 9.2 nM.

As to `CCCCc1nnc(N2CCC([C@H]3C[C@H]3CCOc3ccc(S(C)(=O)=O)cn3)CC2)o1` [Example 247, 2-(2-{(1S,2R)-2-[1-(5-butyl-1,3,4-oxidiazol-2-yl)piperidin-4-yl]cyclopropyl}ethoxy)-5-(methylsulfonyl)pyridine], the EC50 stood at 28 nM.

`O=C(c1c(F)cc(OCC[C@@H]2C[C@@H]2C2CCN(c3nc4ncccn4n3)CC2)cc1F)C1CC1` [Example 251]: the EC50 was determined as 6 nM.

For `CC(C)c1nc(N2CCC([C@H]3C[C@H]3CCOc3ccc(CC(=O)N4CC(O)C4)c(F)c3)CC2)no1` [Example 255, 1-[(2-fluoro-4-{2-[(1S,2R)-2-{1-(5-isopropyl-1,2,4-oxadiazol-3-yl)piperidin-4-yl}cyclopropyl]ethoxy}phenyl)acetyl]azetidin-3-ol], the half-maximal effective concentration (EC50) was determined as 1.6 nM.

`CC(C)c1noc(N2CCC([C@H]3C[C@H]3CCOc3ccc(Cc4nnco4)c(F)c3)CC2)n1` [Example 256, 4-((1R,2S)-2-{2-[3-fluoro-4-(1,3,4-oxadiazol-2-ylmethyl)phenoxy]ethyl}cyclopropyl)-1-(3-isopropyl-1,2,4-oxadiazol-5-yl)piperidine]: the EC50 came to 2.5 nM.

As for `Cc1cc(CC(=O)N2CC(F)C2)cnc1OCC[C@@H]1C[C@@H]1C1CCN(c2nc(C(C)C)no2)CC1` [Example 258, 5-[2-(3-fluoroazetidin-1-yl)-2-oxoethyl]-2-(2-{(1S,2R)-2-[1-(3-isopropyl-1,2,4-oxadiazol-5-yl)piperidin-4-yl]cyclopropyl}ethoxy)-3-methylpyridine], the concentration for a half-maximal effect (EC50) worked out at 8 nM.

The series is the same for the next values; noted with them: table column; cAMP stimulation, human GPR119; read-out: GPR119 Human EC50.
Turning to `COCc1noc(N2CCC([C@H]3C[C@H]3CCOc3ccc(-n4cncn4)cc3)CC2)n1` [Example 223], the concentration giving a half-maximal response (EC50) turned out to be 7.2 nM.

For the compound `COCc1noc(N2CCC([C@H]3C[C@H]3CCOc3ccc(-c4nnn(C)n4)cc3)CC2)n1` [Example 224], the EC50 is 6.4 nM.

As for `COCc1noc(N2CCC([C@H]3C[C@H]3CCOc3ncc(-n4cnnn4)cc3C)CC2)n1` [Example 226], the EC50 was determined as 2.3 nM.

Take `COC(C)c1noc(N2CCC([C@H]3C[C@H]3CCOc3ncc(-n4cnnn4)cc3C)CC2)n1` (some centres unmarked) [Example 227]: the EC50 stood at 0.9 nM.

As for `COCCc1noc(N2CCC([C@H]3C[C@H]3CCOc3ncc(-n4cnnn4)cc3C)CC2)n1` [Example 228], the EC50 worked out at 2 nM.

Consider `Cc1cc(-n2cnnn2)cnc1OCC[C@@H]1C[C@@H]1C1CCN(c2nc(C(C)O)no2)CC1` (some centres unmarked) [Example 229], for which the EC50 stood at 5 nM.

As to `COCc1noc(N2CCC([C@H]3C[C@H]3CCOc3ccc(-n4cnnn4)cn3)CC2)n1` [Example 230], the EC50 was 1.6 nM.

As for `CC(C)c1noc(N2CCC([C@H]3C[C@H]3CCOc3ccc(-n4cnnn4)cn3)CC2)n1` [Example 231], the EC50 stood at 0.4 nM.

For the compound `COCCc1noc(N2CCC([C@H]3C[C@H]3CCOc3ccc(-n4cnnn4)cn3)CC2)n1` [Example 232], the EC50 was found to be 10.6 nM.

As to `CC(C)c1nc(N2CCC([C@H]3C[C@H]3CCOc3ccc(S(C)(=O)=O)cn3)CC2)no1` [Example 234], the EC50 turned out to be 3.5 nM.

On to `CC(C)Cc1nc(N2CCC([C@H]3C[C@H]3CCOc3ccc(S(C)(=O)=O)cn3)CC2)no1` [Example 235], for which the half-maximal effective concentration (EC50) was 6.5 nM.

As for `CC(C)(C)c1nc(N2CCC([C@H]3C[C@H]3CCOc3ccc(S(C)(=O)=O)cn3)CC2)no1` [Example 236], the EC50 is 1.7 nM.

`CS(=O)(=O)c1ccc(OCC[C@@H]2C[C@@H]2C2CCN(c3noc(CCC(F)(F)F)n3)CC2)nc1` [Example 237]: the EC50 was found to be 18 nM.

Consider `CS(=O)(=O)c1ccc(OCC[C@@H]2C[C@@H]2C2CCN(c3noc(C4CC4)n3)CC2)nc1` [Example 238], for which the EC50 worked out at 22 nM.

For `CC1CC1c1nc(N2CCC([C@H]3C[C@H]3CCOc3ccc(S(C)(=O)=O)cn3)CC2)no1` (some centres unmarked) [Example 239], the EC50 was 7 nM.

On to `CC1(c2nc(N3CCC([C@H]4C[C@H]4CCOc4ccc(S(C)(=O)=O)cn4)CC3)no2)CC1` [Example 240], for which the EC50 turned out to be 5.2 nM.

Consider `CS(=O)(=O)c1ccc(OCC[C@@H]2C[C@@H]2C2CCN(c3noc(C4CCC4)n3)CC2)nc1` [Example 241], for which the concentration for a half-maximal effect (EC50) is 4 nM.

On to `CS(=O)(=O)c1ccc(OCC[C@@H]2C[C@@H]2C2CCN(c3noc(C4CCCC4)n3)CC2)nc1` [Example 242], for which the EC50 was 11.6 nM.

As for `CS(=O)(=O)c1ccc(OCC[C@@H]2C[C@@H]2C2CCN(c3noc(CC4CC4)n3)CC2)nc1` [Example 243], the concentration giving a half-maximal response (EC50) was determined as 9.8 nM.

On to `CS(=O)(=O)c1ccc(OCC[C@@H]2C[C@@H]2C2CCN(c3noc(C4(C(F)(F)F)CC4)n3)CC2)nc1` [Example 244], for which the EC50 was 2.1 nM.

Turning to `COCc1nc(N2CCC([C@H]3C[C@H]3CCOc3ccc(S(C)(=O)=O)cn3)CC2)no1` [Example 245], the EC50 came to 8.1 nM.

Take `CCOCc1nc(N2CCC([C@H]3C[C@H]3CCOc3ccc(S(C)(=O)=O)cn3)CC2)no1` [Example 246]: the EC50 came to 7.9 nM.

For the compound `CS(=O)(=O)c1ccc(OCC[C@@H]2C[C@@H]2C2CCN(c3nnc(C4CCC4)o3)CC2)nc1` [Example 248], the EC50 stood at 39 nM.

Regarding `CS(=O)(=O)c1ccc(OCC[C@@H]2C[C@@H]2C2CCN(c3nnc(C4CCCC4)o3)CC2)nc1` [Example 249], the EC50 stood at 32 nM.

With `CS(=O)(=O)c1ccc(OCC[C@@H]2C[C@@H]2C2CCN(c3nnc(-c4ccccc4)o3)CC2)nc1` [Example 250], the EC50 is 49 nM.

Consider `O=C(c1c(F)cc(OCC[C@@H]2C[C@@H]2C2CCN(c3nc4cnccn4n3)CC2)cc1F)C1CC1` [Example 252], for which the EC50 was 4.1 nM.

As to `O=C(c1c(F)cc(OCC[C@@H]2C[C@@H]2C2CCN(c3nnc4ncccn34)CC2)cc1F)C1CC1` [Example 253], the EC50 was found to be 3 nM.

Regarding `Cc1nc(C#N)cc(OCC[C@@H]2C[C@@H]2C2CCN(c3nnc4ncccn34)CC2)n1` [Example 254], the EC50 was 25 nM.

Turning to `CC(C)c1noc(N2CCC([C@H]3C[C@H]3CCOc3ccc(Cc4nncs4)c(F)c3)CC2)n1` [Example 257], the EC50 worked out at 1.4 nM.

As to `Cc1cc(CC(=O)N2CCC(C)CC2)cnc1OCC[C@@H]1C[C@@H]1C1CCN(c2nc(C(C)C)no2)CC1` [Example 259], the EC50 was 18 nM.

For the compound `Cc1cc(CC(=O)N2CC(F)(F)C2)cnc1OCC[C@@H]1C[C@@H]1C1CCN(c2nc(C(C)C)no2)CC1` [Example 260], the EC50 was found to be 3.8 nM.

Regarding `COC1CN(C(=O)Cc2cnc(OCC[C@@H]3C[C@@H]3C3CCN(c4nc(C(C)C)no4)CC3)c(C)c2)C1` [Example 261], the concentration for a half-maximal effect (EC50) was 19 nM.

For the compound `Cc1cc(CC(=O)N2CC(C)(O)C2)cnc1OCC[C@@H]1C[C@@H]1C1CCN(c2nc(C(C)C)no2)CC1` [Example 262], the EC50 was 12 nM.

As for `Cc1cc(CC(=O)N(C)C)cnc1OCC[C@@H]1C[C@@H]1C1CCN(c2nc(C(C)C)no2)CC1` [Example 263], the EC50 was 14 nM.

As for `Cc1cc(CC(=O)N(C)C2CCS(=O)(=O)C2)cnc1OCC[C@@H]1C[C@@H]1C1CCN(c2nc(C(C)C)no2)CC1` (some centres unmarked) [Example 264], the EC50 turned out to be 11 nM.

System in the next series: not given
Assay: not given
Settings: not given
For `COCc1noc(N2CCC([C@H]3C[C@H]3CCOc3ccc(S(C)(=O)=O)cn3)CC2)n1` [Example 208, 3-(methoxymethyl)-5-(4-((1R,2S)-2-(2-(5-(methylsulfonyl)pyridin-2-yloxy)ethyl)cyclopropyl)piperidin-1-yl)-1,2,4-oxadiazole], the melting point (usually the temperature, or range, at which the solid turns liquid) is 68 to 70 °C.
